Source: ChEMBL document CHEMBL4033663, “Design, combinatorial synthesis and biological evaluations of novel 3-amino-1'-((1-aryl-1H-1,2,3-triazol-5-yl)methyl)-2'-oxospiro[benzo[a] pyrano[2,3-c]phenazine-1,3'-indoline]-2-carbonitrile antitumor hybrid molecules” (Eur J Med Chem, 2017)

Tests used:
A549 = assay: Antiproliferative activity against human A549 cells after 48 hrs by MTT assay; format: functional, cell-based; conditions: A549, 48 h
MCF7 = assay: Antiproliferative activity against human MCF7 cells after 48 hrs by MTT assay; format: functional, cell-based; conditions: MCF7, 48 h
HCT-116 = assay: Antiproliferative activity against human HCT116 cells after 48 hrs by MTT assay; format: functional, cell-based; conditions: HCT-116, 48 h
HUVEC = assay: Antiproliferative activity against human HUVEC cells after 48 hrs by MTT assay; format: cell-based
L02 = assay: Antiproliferative activity against human L02 cells after 48 hrs by MTT assay; format: cell-based; conditions: L02, 48 h
HepG2 = assay: Antiproliferative activity against human HepG2 cells after 48 hrs by MTT assay; format: functional, cell-based; conditions: HepG2, 48 h

| Structure (SMILES) | IC50 (A549) [µM] | IC50 (MCF7) [µM] | IC50 (HCT-116) [µM] | IC50 (HUVEC) [µM] | IC50 (L02) [µM] | IC50 (HepG2) [µM] |
| --- | --- | --- | --- | --- | --- | --- |
| Cc1ccccc1-n1nncc1CN1C(=O)C2(C(C#N)=C(N)Oc3c(N)cc4nc5ccccc5nc4c32)c2ccccc21 (stereo unspecified) | 31.7 | > 50 | > 50 | > 50 | > 50 | > 50 |
| Cc1ccc(Cl)cc1-n1nncc1CN1C(=O)C2(C(C#N)=C(N)Oc3c(N)cc4nc5ccccc5nc4c32)c2ccccc21 (stereo unspecified) | > 50 | 43.5 | 37.2 | > 50 | > 50 | 17.3 |
| Cc1ccccc1-n1nncc1CN1C(=O)C2(C(C#N)=C(N)Oc3c2c2nc4ccccc4nc2c2ccccc32)c2ccccc21 (stereo unspecified) | > 50 | > 50 | > 50 | > 50 | > 50 | > 50 |
| N#CC1=C(N)Oc2c(c3nc4ccccc4nc3c3ccccc23)C12C(=O)N(Cc1cnnn1-c1ccc(Cl)c(Cl)c1)c1ccccc12 (stereo unspecified) | > 50 | > 50 | > 50 | > 50 | > 50 | > 50 |
| Cc1ccc(Cl)cc1-n1nncc1CN1C(=O)C2(C(C#N)=C(N)Oc3c2c2nc4ccccc4nc2c2ccccc32)c2ccccc21 (stereo unspecified) | > 50 | > 50 | > 50 | > 50 | > 50 | > 50 |
| CCc1cccc(C)c1-n1nncc1CN1C(=O)C2(C(C#N)=C(N)Oc3c(N)cc4nc5ccccc5nc4c32)c2ccccc21 (stereo unspecified) | > 50 | > 50 | > 50 | > 50 | > 50 | > 50 |
| N#CC1=C(N)Oc2c(c3nc4ccccc4nc3c3ccccc23)C12C(=O)N(Cc1cnnn1-c1cccc(Cl)c1)c1ccccc12 (stereo unspecified) | 32.6 | 43.6 | > 50 | > 50 | 35.2 | > 50 |
| CCOc1ccc(-n2nncc2CN2C(=O)C3(C(C#N)=C(N)Oc4c(N)cc5nc6ccccc6nc5c43)c3ccccc32)cc1 (stereo unspecified) | > 50 | 26.8 | > 50 | > 50 | > 50 | > 50 |
| CC[C@@]1(O)C(=O)OCc2c1cc1n(c2=O)Cc2cc3cc(O)ccc3nc2-1 [HYDROXYCAMPTOTHECIN] | – | 2.8 | 3.2 | 18.2 | 20.4 | 10.3 |
| N#CC1=C(N)Oc2c(c3nc4ccccc4nc3c3ccccc23)C12C(=O)N(Cc1cnnn1-c1ccc(Br)cc1)c1ccccc12 (stereo unspecified) | 44.3 | 36.6 | > 50 | > 50 | > 50 | > 50 |
| N#CC1=C(N)Oc2c(N)cc3nc4ccccc4nc3c2C12C(=O)N(Cc1cnnn1-c1ccccc1Br)c1ccccc12 (stereo unspecified) | 27.4 | 30.7 | 12.4 | 34.2 | 29.2 | 38 |
| COc1ccccc1-n1nncc1CN1C(=O)C2(C(C#N)=C(N)Oc3c(N)cc4nc5ccccc5nc4c32)c2ccccc21 (stereo unspecified) | 37.5 | 28.9 | > 50 | > 50 | > 50 | > 50 |
| CCOc1ccccc1-n1nncc1CN1C(=O)C2(C(C#N)=C(N)Oc3c(N)cc4nc5ccccc5nc4c32)c2ccccc21 (stereo unspecified) | > 50 | > 50 | > 50 | > 50 | > 50 | 30.5 |
| N#CC1=C(N)Oc2c(N)cc3nc4ccccc4nc3c2C12C(=O)N(Cc1cnnn1-c1ccc(F)c(Cl)c1)c1ccccc12 (stereo unspecified) | 43.4 | 17.8 | > 50 | > 50 | > 50 | > 50 |
| N#CC1=C(N)Oc2c(c3nc4ccccc4nc3c3ccccc23)C12C(=O)N(Cc1cnnn1-c1ccc(S(N)(=O)=O)cc1)c1ccccc12 (stereo unspecified) | > 50 | > 50 | 31.2 | > 50 | > 50 | 42.2 |
| N#CC1=C(N)Oc2c(c3nc4ccccc4nc3c3ccccc23)C12C(=O)N(Cc1cnnn1-c1ccccc1Br)c1ccccc12 (stereo unspecified) | > 50 | > 50 | > 50 | > 50 | > 50 | > 50 |
| Cc1ccc(C)c(-n2nncc2CN2C(=O)C3(C(C#N)=C(N)Oc4c(N)cc5nc6ccccc6nc5c43)c3ccccc32)c1 (stereo unspecified) | > 50 | > 50 | > 50 | > 50 | > 50 | > 50 |
| Cc1ccc(C)c(-n2nncc2CN2C(=O)C3(C(C#N)=C(N)Oc4c3c3nc5ccccc5nc3c3ccccc43)c3ccccc32)c1 (stereo unspecified) | > 50 | > 50 | > 50 | > 50 | > 50 | > 50 |
| N#CC1=C(N)Oc2c(N)cc3nc4ccccc4nc3c2C12C(=O)N(Cc1cnnn1-c1ccc(F)cc1)c1ccccc12 (stereo unspecified) | > 50 | > 50 | > 50 | > 50 | > 50 | > 50 |

| Structure (SMILES) | IC50 (A549) [µM] | IC50 (MCF7) [µM] | IC50 (HCT-116) [µM] | IC50 (HUVEC) [µM] | IC50 (L02) [µM] | IC50 (HepG2) [µM] |
| --- | --- | --- | --- | --- | --- | --- |
| CCc1cccc(CC)c1-n1nncc1CN1C(=O)C2(C(C#N)=C(N)Oc3c(N)cc4nc5ccccc5nc4c32)c2ccccc21 (stereo unspecified) | > 50 | > 50 | 37.6 | > 50 | > 50 | 16.5 |
| N#CC1=C(N)Oc2c(c3nc4ccccc4nc3c3ccccc23)C12C(=O)N(Cc1cnnn1-c1cc(Cl)ccc1Cl)c1ccccc12 (stereo unspecified) | > 50 | > 50 | > 50 | > 50 | > 50 | > 50 |
| N#CC1=C(N)Oc2c(c3nc4ccccc4nc3c3ccccc23)C12C(=O)N(Cc1cnnn1-c1cccc(S(N)(=O)=O)c1)c1ccccc12 (stereo unspecified) | 44.2 | 42.5 | 11.3 | 38.6 | > 50 | 21.5 |
| N#CC1=C(N)Oc2c(N)cc3nc4ccccc4nc3c2C12C(=O)N(Cc1cnnn1-c1ccc([N+](=O)[O-])cc1[N+](=O)[O-])c1ccccc12 (stereo unspecified) | > 50 | 20.9 | 23.9 | > 50 | 22.8 | 18.4 |
| COc1ccccc1-n1nncc1CN1C(=O)C2(C(C#N)=C(N)Oc3c2c2nc4ccccc4nc2c2ccccc32)c2ccccc21 (stereo unspecified) | > 50 | > 50 | > 50 | > 50 | > 50 | > 50 |
| CCOc1ccccc1-n1nncc1CN1C(=O)C2(C(C#N)=C(N)Oc3c2c2nc4ccccc4nc2c2ccccc32)c2ccccc21 (stereo unspecified) | > 50 | > 50 | > 50 | > 50 | > 50 | > 50 |
| Cc1cc(C)c(-n2nncc2CN2C(=O)C3(C(C#N)=C(N)Oc4c(N)cc5nc6ccccc6nc5c43)c3ccccc32)c(C)c1 (stereo unspecified) | 12.7 | > 50 | > 50 | > 50 | > 50 | 48.1 |
| Cc1cccc(-n2nncc2CN2C(=O)C3(C(C#N)=C(N)Oc4c(N)cc5nc6ccccc6nc5c43)c3ccccc32)c1 (stereo unspecified) | 12.3 | > 50 | > 50 | > 50 | > 50 | > 50 |
| N#CC1=C(N)Oc2c(N)cc3nc4ccccc4nc3c2C12C(=O)N(Cc1cnnn1-c1ccc(Cl)cc1Cl)c1ccccc12 (stereo unspecified) | > 50 | > 50 | > 50 | > 50 | > 50 | > 50 |
| N#CC1=C(N)Oc2c(N)cc3nc4ccccc4nc3c2C12C(=O)N(Cc1cnnn1-c1ccc([N+](=O)[O-])cc1)c1ccccc12 (stereo unspecified) | > 50 | > 50 | > 50 | > 50 | > 50 | > 50 |
| N#CC1=C(N)Oc2c(c3nc4ccccc4nc3c3ccccc23)C12C(=O)N(Cc1cnnn1-c1ccccc1Cl)c1ccccc12 (stereo unspecified) | 42.6 | > 50 | > 50 | > 50 | > 50 | > 50 |
| COc1cc(-n2nncc2CN2C(=O)C3(C(C#N)=C(N)Oc4c(N)cc5nc6ccccc6nc5c43)c3ccccc32)c(OC)cc1Cl (stereo unspecified) | > 50 | > 50 | > 50 | > 50 | > 50 | > 50 |
| N#CC1=C(N)Oc2c(N)cc3nc4ccccc4nc3c2C12C(=O)N(Cc1cnnn1-c1c(Cl)cc(Cl)cc1Cl)c1ccccc12 (stereo unspecified) | > 50 | 37.8 | 12.1 | 18.3 | > 50 | 37.8 |
| N#CC1=C(N)Oc2c(c3nc4ccccc4nc3c3ccccc23)C12C(=O)N(Cc1cnnn1-c1cccc(Br)c1)c1ccccc12 (stereo unspecified) | > 50 | > 50 | > 50 | > 50 | > 50 | > 50 |
| N#CC1=C(N)Oc2c(N)cc3nc4ccccc4nc3c2C12C(=O)N(Cc1cnnn1-c1ccccc1Cl)c1ccccc12 (stereo unspecified) | 29.8 | 34.4 | > 50 | > 50 | > 50 | 33.5 |
| N#CC1=C(N)Oc2c(c3nc4ccccc4nc3c3ccccc23)C12C(=O)N(Cc1cnnn1-c1ccc(N)cc1)c1ccccc12 (stereo unspecified) | > 50 | > 50 | 45.2 | > 50 | > 50 | > 50 |
| Cc1ccc(-n2nncc2CN2C(=O)C3(C(C#N)=C(N)Oc4c(N)cc5nc6ccccc6nc5c43)c3ccccc32)cc1Cl (stereo unspecified) | 11.8 | > 50 | > 50 | > 50 | > 50 | > 50 |
| Cc1ccc(-n2nncc2CN2C(=O)C3(C(C#N)=C(N)Oc4c3c3nc5ccccc5nc3c3ccccc43)c3ccccc32)cc1Cl (stereo unspecified) | > 50 | > 50 | > 50 | > 50 | > 50 | > 50 |
